PubChem BioAssay (NCI)
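Test compounds were applied to cells in 96-well plates for 48 hours at 5 doses. Here, GI50 denotes the concentration required for 50% inhibition of growth. At the TGI there is no net growth.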

Columns and labels:
Assay in all cases: NCI tumour cell line growth inhibition, 48 h; in the data active = GI50 below about 0.43 µM; inactive = the rest
[1] = tested on: 786-0 renal
[2] = tested on: A498 renal
[3] = tested on: A549 NSCLC
[4] = tested on: ACHN renal
[5] = tested on: BT-549 breast
[6] = tested on: CAKI-1 renal
[7] = tested on: CCRF-CEM leukemia
[8] = tested on: DU-145 prostate
[9] = tested on: EKVX NSCLC
[10] = tested on: HCT-116 colon
[11] = tested on: HCT-15 colon
[12] = tested on: HL-60(TB) leukemia
[13] = tested on: HOP-62 NSCLC
[14] = tested on: HS 578T breast
[15] = tested on: HT29 colon
[16] = tested on: IGROV1 ovarian
[17] = tested on: K-562 leukemia
[18] = tested on: KM12 colon
[19] = tested on: LOX IMVI melanoma
[20] = tested on: MCF7 breast
[21] = tested on: MDA-MB-231 breast
[22] = tested on: MOLT-4 leukemia
[23] = tested on: NCI-H226 lung
[24] = tested on: NCI-H23 lung
[25] = tested on: NCI-H460 lung
[26] = tested on: NCI/ADR-RES ovarian
[27] = tested on: OVCAR-3 ovarian
[28] = tested on: OVCAR-4 ovarian
[29] = tested on: OVCAR-8 ovarian
[30] = tested on: PC-3 prostate
[31] = tested on: RPMI-8226 leukemia
[32] = tested on: RXF 393 renal
[33] = tested on: SF-268 CNS
[34] = tested on: SF-295 CNS
[35] = tested on: SK-MEL-2 melanoma
[36] = tested on: SK-MEL-28 melanoma
[37] = tested on: SK-MEL-5 melanoma
[38] = tested on: SK-OV-3 ovarian
[39] = tested on: SN12C renal
[40] = tested on: SNB-19 CNS
[41] = tested on: SNB-75 CNS
[42] = tested on: SW-620 colon
[43] = tested on: T-47D breast
[44] = tested on: TK-10 renal
[45] = tested on: U251 CNS
[46] = tested on: UACC-257 melanoma
[47] = tested on: UACC-62 melanoma
[48] = tested on: UO-31 renal

CCOc1ccccc1/C=N\N=C(\N)N/N=C/c1ccccc1OCC
7.26 µM: TGI [14]
3.82 µM: TGI [32]
8.92 µM: TGI [12]
> 100 µM: TGI [1] | TGI [2] | TGI [3] | TGI [4] | TGI [5] | TGI [6] | TGI [7] | TGI [8] | TGI [9] | TGI [10] | TGI [11] | TGI [13] | TGI [15] | TGI [16] | TGI [17] | TGI [18] | TGI [19] | TGI [20] | TGI [21] | TGI [22] | TGI [23] | TGI [24] | TGI [25] | TGI [26] | TGI [28] | TGI [29] | TGI [30] | TGI [31] | TGI [33] | TGI [34] | TGI [35] | TGI [36] | TGI [37] | TGI [38] | TGI [39] | TGI [40] | TGI [42] | TGI [43] | TGI [44] | TGI [45] | TGI [46] | TGI [47] | TGI [48]
inactive: GI50 [1] 4.42 µM | GI50 [2] 2.42 µM | GI50 [3] 4.25 µM | GI50 [4] 3.82 µM | GI50 [5] 5.08 µM | GI50 [6] 4.12 µM | GI50 [7] 3.06 µM | GI50 [8] 2.84 µM | GI50 [9] 4.59 µM | GI50 [10] 3.12 µM | GI50 [11] 1.46 µM | GI50 [12] 1.33 µM | GI50 [13] 5.73 µM | GI50 [14] 1.65 µM | GI50 [15] 2.5 µM | GI50 [16] 4.76 µM | GI50 [17] 0.707 µM | GI50 [18] 1.89 µM | GI50 [19] 4.68 µM | GI50 [20] 1.01 µM | GI50 [21] 4.69 µM | GI50 [22] 3.33 µM | GI50 [23] 5.55 µM | GI50 [24] 5.86 µM | GI50 [25] 3.16 µM | GI50 [26] 2.62 µM | GI50 [27] 1.69 µM | GI50 [28] 3.68 µM | GI50 [29] 3.76 µM | GI50 [30] 3.14 µM | GI50 [31] 2.82 µM | GI50 [32] 1.26 µM | GI50 [33] 3.11 µM | GI50 [34] 1.36 µM | GI50 [35] 1.26 µM | GI50 [36] 4.51 µM | GI50 [37] 1.63 µM | GI50 [38] 2.93 µM | GI50 [39] 5.89 µM | GI50 [40] 4.49 µM | GI50 [41] 1.78 µM | GI50 [42] 2.46 µM | GI50 [43] 3.73 µM | GI50 [44] 6.16 µM | GI50 [45] 3.35 µM | GI50 [46] 4.37 µM | GI50 [47] 0.914 µM | GI50 [48] 2.97 µM
4.48 µM: TGI [27]
8.05 µM: TGI [41]
